Source: patent US12534452B2, “N-(1H-imidazol-2-yl)benzamide compound and pharmaceutical composition comprising the same as active ingredient” (KAINOS MEDICINE, INC., priority 2019, dated 2026)

Molecular target: IRAK4 (Homo sapiens (Human), UniProt Q9NWZ3)
Test: In vitro IRAK4 phosphorylation activity assay
Format: biochemical
Conditions: [γ-33P]-ATP, myelin basic protein substrate, 40 minutes at room temperature; categories
Outline: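 Radiometric filter-binding assay, no compound–kinase preincubation; 8 mM MOPS pH 7.0, 0.2 mM EDTA, 10 mM Mg acetate, 0.33 mg/mL myelin basic protein substrate, [γ-33P]-ATP. Reaction 40 min at room temperature, stopped with phosphoric acid, scintillation counting; IC50 reported in categories.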

Chain of IRAK4 (Q9NWZ3 whole entry): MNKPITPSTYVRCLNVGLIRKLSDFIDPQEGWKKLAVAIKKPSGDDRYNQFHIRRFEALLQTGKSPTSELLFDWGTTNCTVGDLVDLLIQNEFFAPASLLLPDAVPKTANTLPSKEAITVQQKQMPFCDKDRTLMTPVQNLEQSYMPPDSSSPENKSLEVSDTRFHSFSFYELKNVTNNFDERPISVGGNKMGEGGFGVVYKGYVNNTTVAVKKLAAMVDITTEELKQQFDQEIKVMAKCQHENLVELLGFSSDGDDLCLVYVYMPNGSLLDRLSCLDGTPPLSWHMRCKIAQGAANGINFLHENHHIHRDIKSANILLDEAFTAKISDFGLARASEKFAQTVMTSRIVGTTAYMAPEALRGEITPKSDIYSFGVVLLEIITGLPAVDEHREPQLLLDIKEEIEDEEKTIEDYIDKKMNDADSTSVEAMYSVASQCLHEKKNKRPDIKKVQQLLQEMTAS

SMILES	IC50
O=C(Nc1nc(CCC(=O)N2CCOCC2)cn1-c1ccccc1)c1cccc(-c2cn[nH]c2)c1 [Example 11, N-(4-(3-morpholino-3-oxopropyl)-1-phenyl-1H-imidazol-2-yl)-3-(1H-pyrazol-4-yl)benzamide]	< 50 nM
O=C(Nc1nc(CCCCCCN2CCCC2=O)cn1-c1ccccc1)c1cccc(-c2ccc3[nH]ncc3c2)c1 [Example 259, 3-(1H-indazol-5-yl)-N-(4-(6-(2-oxopyrrolidin-1-yl)hexyl)-1-phenyl-1H-imidazol-2-yl)benzamide]	< 50 nM
Cn1cc(-c2cccc(C(=O)Nc3nc(CCCC(=O)N4CCCC(F)(F)C4)cn3-c3ccccc3)c2)cn1 [Example 175, N-(4-(4-(3,3-difluoropiperidin-1-yl)-4-oxobutyl)-1-phenyl-1H-imidazol-2-yl)-3-(1-methyl-1H-pyrazol-4-yl)benzamide]	< 50 nM
Cn1cc(-c2cccc(C(=O)Nc3nc(CCCCC(=O)NC4CCOCC4)cn3-c3ccccc3)c2)cn1 [Example 197, 3-(1-methyl-1H-pyrazol-4-yl)-N-(4-(5-oxo-5-((tetrahydro-2H-pyran-4-yl)amino)pentyl)-1-phenyl-1H-imidazol-2-yl)benzamide]	< 50 nM
O=C(Nc1nc(CCCCNc2ccccc2)cn1-c1ccccc1)c1cccc(-c2cn[nH]c2)c1 [Example 112, N-(1-phenyl-4-(4-(phenylamino)butyl)-1H-imidazol-2-yl)-3-(1H-pyrazol-4-yl)benzamide]	> 100 nM
O=C(Nc1nc(CCCCCCN2CCCCC2)cn1-c1ccccc1)c1cccc(-c2cccc3[nH]ncc23)c1 [Example 255, 3-(1H-indazol-4-yl)-N-(1-phenyl-4-(6-(piperidin-1-yl)hexyl)-1H-imidazol-2-yl)benzamide]	< 50 nM
Cn1cc(-c2cccc(C(=O)Nc3nc(CCCC(=O)Nc4ccn(C)n4)cn3-c3ccccc3)c2)cn1 [Example 190, N-(4-(4-((1-methyl-1H-pyrazol-3-yl)amino)-4-oxobutyl)-1-phenyl-1H-imidazol-2-yl)-3-(1-methyl-1H-pyrazol-4-yl)benzamide]	< 50 nM
CNC(=O)Cc1cn(-c2ccccc2)c(NC(=O)c2cccc(-c3ccncc3)c2)n1 [Example 265, N-(4-(2-(methylamino)-2-oxoethyl)-1-phenyl-1H-imidazol-2-yl)-3-(pyridin-4-yl)benzamide]	> 100 nM
O=C(Nc1nc(CCCC(=O)N2CCCCC2)cn1-c1ccccc1)c1cccc(-c2cn[nH]c2F)c1 [Example 231, 3-(5-fluoro-1H-pyrazol-4-yl)-N-(4-(4-oxo-4-(piperidin-1-yl)butyl)-1-phenyl-1H-imidazol-2-yl)benzamide]	< 50 nM
COC[C@H]1CCCN1C(=O)CCc1cn(-c2ccccc2)c(NC(=O)c2cccc(-c3cn[nH]c3)c2)n1 [Example 20, (R)—N-(4-(3-(2-(methoxymethyl)pyrrolidin-1-yl)-3-oxopropyl)-1-phenyl-1H-imidazol-2-yl)-3-(1H-pyrazol-4-yl)benzamide]	> 100 nM

The remaining lines, values ahead:

IC50	SMILES
< 50 nM	Cn1cc(-c2cccc(C(=O)Nc3nc(CCCC(=O)NCC4CCOCC4)cn3-c3ccccc3)c2)cn1 [Example 172, 3-(1-methyl-1H-pyrazol-4-yl)-N-(4-(4-oxo-4-(((tetrahydro-2H-pyran-4-yl)methyl)amino)butyl)-1-phenyl-1H-imidazol-2-yl)benzamide]
> 100 nM	CNC(=O)Cc1cn(-c2ccccc2)c(NC(=O)c2ccc(-c3cn[nH]c3)cc2)n1 [Example 48, N-(4-(2-(methylamino)-2-oxoethyl)-1-phenyl-1H-imidazol-2-yl)-4-(1H-pyrazol-4-yl)benzamide]
< 50 nM	O=C(Nc1nc(CCCCCCN2CCCCC2)cn1-c1ccccc1)c1cccc(-c2cccnc2)c1 [Example 270, N-(1-phenyl-4-(6-(piperidin-1-yl)hexyl)-1H-imidazol-2-yl)-3-(pyridin-3-yl)benzamide]
< 50 nM	Cn1cc(-c2cccc(C(=O)Nc3nc(CCCC(=O)N4CCCC[C@@H]4CCO)cn3-c3ccccc3)c2)cn1 [Example 174, (R)—N-(4-(4-(2-(2-hydroxyethyl)piperidin-1-yl)-4-oxobutyl)-1-phenyl-1H-imidazol-2-yl)-3-(1-methyl-1H-pyrazol-4-yl)benzamide]
< 50 nM	O=C(CCCc1cn(-c2ccccc2)c(NC(=O)c2cccc(-c3cnn(CF)c3)c2)n1)NC1CC1 [Example 234, N-(4-(4-(cyclopropylamino)-4-oxobutyl)-1-phenyl-1H-imidazol-2-yl)-3-(1-(fluoromethyl)-1H-pyrazol-4-yl)benzamide]
< 50 nM	C[C@@H]1CCCCN1C(=O)CCCCCc1cn(-c2ccccc2)c(NC(=O)c2cccc(-c3cn[nH]c3)c2)n1 [Example 96, (R)—N-(4-(6-(2-methylpiperidin-1-yl)-6-oxohexyl)-1-phenyl-1H-imidazol-2-yl)-3-(1H-pyrazol-4-yl)benzamide]
> 100 nM	Nc1n[nH]cc1-c1cccc(C(=O)Nc2nc(CCC(=O)Nc3ccccc3)cn2-c2ccccc2)c1 [Example 2, 3-(3-amino-1H-pyrazol-4-yl)-N-(4-(3-oxo-3-(phenylamino)propyl)-1-phenyl-1H-imidazol-2-yl)benzamide]
< 50 nM	O=C(Nc1nc(CCCCCC[N+]2([O-])CCCCC2)cn1-c1ccccc1)c1cccc(-c2cn[nH]c2)c1 [Example 125, 1-(6-(2-(3-(1H-pyrazol-4-yl)benzamido)-1-phenyl-1H-imidazol-4-yl)hexyl)piperidine 1-oxide]
> 100 nM	CN(C)C1CCN(C(=O)CCCc2cn(-c3ccccc3)c(NC(=O)c3cccc(-c4ccc5scnc5c4)c3)n2)CC1 [Example 282, 3-(benzo[d]thiazol-5-yl)-N-(4-(4-(4-(dimethylamino)piperidin-1-yl)-4-oxobutyl)-1-phenyl-1H-imidazol-2-yl)benzamide]
< 50 nM	Cn1cc(-c2cccc(C(=O)Nc3nc(CCCC(=O)N4CCC(N)CC4)cn3-c3ccccc3)c2)cn1 [Example 209, N-(4-(4-(4-aminopiperidin-1-yl)-4-oxobutyl)-1-phenyl-1H-imidazol-2-yl)-3-(1-methyl-1H-pyrazol-4-yl)benzamide]
50 to 100 nM	C[C@H]1CCCCN1C(=O)CCc1cn(-c2ccccc2)c(NC(=O)c2cccc(-c3cn[nH]c3)c2)n1 [Example 31, (S)—N-(4-(3-(2-methylpiperidin-1-yl)-3-oxopropyl)-1-phenyl-1H-imidazol-2-yl)-3-(1H-pyrazol-4-yl)benzamide]
< 50 nM	Cn1cc(-c2cccc(C(=O)Nc3nc(CCCC(=O)N4CCCC[C@@H]4C(F)(F)F)cn3-c3ccccc3)c2)cn1 [Example 176, (R)-3-(1-methyl-1H-pyrazol-4-yl)-N-(4-(4-oxo-4-(2-(trifluoromethyl)piperidin-1-yl)butyl)-1-phenyl-1H-imidazol-2-yl)benzamide]
< 50 nM	O=C(CCCc1cn(-c2ccccc2)c(NC(=O)c2cccc(-c3cn[nH]c3)c2)n1)Nc1ccc(F)cc1F [Example 66, N-(4-(4-((2,4-difluorophenyl)amino)-4-oxobutyl)-1-phenyl-1H-imidazol-2-yl)-3-(1H-pyrazol-4-yl)benzamide]
< 50 nM	CNC(=O)CCCCc1cn(-c2ccccc2)c(NC(=O)c2cccc(-c3cn[nH]c3)c2)n1 [Example 80, N-(4-(5-(methylamino)-5-oxopentyl)-1-phenyl-1H-imidazol-2-yl)-3-(1H-pyrazol-4-yl)benzamide]
< 50 nM	O=C(Nc1nc(CCCN2CCSCC2)cn1-c1ccccc1)c1cccc(-c2cn[nH]c2)c1 [Example 110, N-(1-phenyl-4-(3-thiomorpholinopropyl)-1H-imidazol-2-yl)-3-(1H-pyrazol-4-yl)benzamide]
